Source: US10485746B2, “Synergistic antibacterial effects of magnolia bark extract and L-arginine, Nα-lauroyl ethyl ester on salivary bacteria” (WM. WRIGLEY JR. COMPANY, priority 2015, dated 2019)
Converted amounts (≈) assume the structure as drawn.

Tests used:
[1] = system: S. mutans (ATCC No. 25715); experiment: MIC against S. mutans; format: cell-based; settings: Streptococcus mutans, ATCC25715; 48 hours, 37° C., turbidity <0.05 absorbance at 660 nm
From the text: (§1) One method of evaluating the efficacy of LAE and MBE against salivary bacteria is by determining the minimum inhibitory concentration (MIC). One suitable method for determining MIC is described in U.S. Pat. No. 7,470,442, which is herein incorporated by reference. Briefly, chlorhexidine is used as a positive control and sterile water is used as a negative control. Methanol and Tween 80 are used as a solvent for MBE. Tween 80 is the common name for Polysorbate 80. Ninety-six-well microtiter plates are used for this study. Each well contained 5×10^5 CFU/ml of bacteria, serially diluted agents and bacterial growth medium. All bacterial cultures are incubated at 37° C. and stationary. Bacterial growth is estimated spectrophotometrically at 660 nm, after 48 hours.
(§2) S. mutans (ATCC No. 25715), S. sobrinus (ATCC 33478), S. salivarius (ATCC 13419) and F. nucleatum (ATCC No. 10953) were purchased from American Type Culture Center (ATCC, MD). S. mutans, S. sobrinus, and S. salivarius were incubated for 24 hours in Schaedler broth containing 1 ppm vitamin K and 10 ppm hemin. F. nucleatum was incubated anaerobically for 48 hrs. […]
(§3) The MIC of LAE and MBE against the four oral bacteria described supra was determined. The effectiveness of MBE and LAE on total salivary bacteria was evaluated using whole saliva. […]

[2] = system: S. sobrinus (ATCC 33478); experiment: MIC against S. sobrinus; format: cell-based; settings: Streptococcus sobrinus, ATCC33478; 48 hours, 37° C., turbidity <0.05 absorbance at 660 nm
From the text: as §1, §2, §3

[3] = system: total salivary bacteria (whole saliva); experiment: MIC and FIC Index against total salivary bacteria (whole saliva); format: cell-based, human
From the text: as §1
For testing total salivary bacteria (whole saliva), 30 ml of saliva was collected from a minimum of 3 healthy human volunteers by chewing a standard gum base. The freshly collected saliva was vortexed briefly and directly added to nutrient broth.
A 1% (w/v) solution of MBE powder (95% magnolol, 5% honokiol, Honsea Sunshine Biotech Co., Ltd., Guangzhou, China) in 100% ethanol was prepared, and used in the current example.
LAE-CF (containing 99% pure LAE) was obtained from Vedeqsa of Barcelona, Spain, and used in the current example.
The MIC of LAE and MBE against the four oral bacteria described supra was determined. The effectiveness of MBE and LAE on total salivary bacteria was evaluated using whole saliva.
Chlorhexidine was used as a positive control and sterile water was used as a negative control. MBE was dissolved in ethanol to produce a working solution containing 1% of MBE. It was added to Shaedler broth that contained 10 ppm of Hemin, 1 ppm of Vitamin K and a minimum of 1×10^6 CFU/ml of bacterial strains. […]
Calculation of the FIC is disclosed in U.S. Pat. No. 7,074,447, which is herein incorporated by reference. Briefly, the FIC Index is calculated according to the following formula: FIC=[QA/Qa+QB/Qb] where […]

[4] = system: F. nucleatum (ATCC No. 10953); experiment: MBC against F. nucleatum; format: cell-based; settings: Fusobacterium nucleatum, ATCC10953; kills at least 99.9% of initial inoculum
Method: (§4) Another method for evaluating the efficacy of LAE and MBE against salivary bacteria is by determining the minimum bactericidal concentration (MBC). One suitable method for determining MBC is described in U.S. Pat. No. 7,470,442. Briefly, the MBC is determined using the 96-well microtiter plate serial dilutions as described above for the MIC test. Serial dilutions of cultures in wells showing no visible growth are performed and 10 microliters of culture are plated in triplicate on blood agar plates. Viable colonies are scored after incubation of the plates for 48 hours at 37° C. For each test bacterium, the number of CFU/ml is determined in the initial inoculum. The MBC is defined as the lowest concentration of a test compound that killed at least 99.9% of the cells present in the initial inoculum. […] The MBC of MBE and LAE against the four oral bacteria described supra was determined using the MBC protocol set forth below. The effectiveness of MBE on total salivary bacteria was evaluated using whole saliva. The MBC was determined by serial dilutions as described above for the MIC test. […] Viable colonies were scored after incubation of the plates for 48 hours at 37° C. For each test bacterium, the number of CFU/ml was determined in the initial inoculum. […]

[5] = system: S. sobrinus (ATCC 33478); experiment: MBC against S. sobrinus; format: cell-based; settings: Streptococcus sobrinus, ATCC33478; kills at least 99.9% of initial inoculum
Method: as §4

[6] = system: S. mutans (ATCC No. 25715); experiment: MBC against S. mutans; format: cell-based; settings: Streptococcus mutans, ATCC25715; kills at least 99.9% of initial inoculum
Method: as §4

[7] = system: F. nucleatum (ATCC No. 10953); experiment: MIC against F. nucleatum; format: cell-based; settings: Fusobacterium nucleatum, ATCC10953; 48 hours, 37° C., turbidity <0.05 absorbance at 660 nm
From the text: as §1, §2, §3

[8] = system: S. salivarius (ATCC 13419); experiment: MIC against S. salivarius; format: cell-based; settings: Streptococcus salivarius, ATCC13419; 48 hours, 37° C., turbidity <0.05 absorbance at 660 nm
From the text: as §1, §2, §3

[9] = system: S. salivarius (ATCC 13419); experiment: MBC against S. salivarius; format: cell-based; settings: Streptococcus salivarius, ATCC13419; kills at least 99.9% of initial inoculum
Method: as §4

MIC [1]: 6.3 µg/mL (≈ 16.4 µM)
MIC [2]: 6.3 µg/mL (≈ 16.4 µM)
MIC Whole Saliva ([3]; 48 hours, 37° C., turbidity <0.05 absorbance at 660 nm): 50 ppm
MIC (ppm) on total salivary bacteria, component alone ([3]; Table 3, single agent): 50 ppm
MIC [7]: 12.5 µg/mL (≈ 32.5 µM)
MIC [8]: 6.3 µg/mL (≈ 16.4 µM)
Structure (SMILES): CCCCCCCCCCCC(=O)N[C@@H](CCCNC(=N)N)C(=O)OCC [LAE-CF, L-arginine, N^α-lauroyl ethyl ester]
FIC ([3]; total salivary bacteria, FIC<1 synergistic, 1≤FIC≤2 additive, 2<FIC antagonistic): 1
MBC [4]: 12.5 µg/mL (≈ 32.5 µM)
MBC [5]: 12.5 µg/mL (≈ 32.5 µM)
MBC [6]: 12.5 µg/mL (≈ 32.5 µM)
MBC [9]: 12.5 µg/mL (≈ 32.5 µM)
